Experimental data as given in the NIST ThermoML archive (doi:10.1021/je100237h).

Details: Liquid; for viscosity: 101.33 kPa, Concentric cylinders viscometry; for mass density: Vibrating tube method

COC(=O)CCCCC(=O)OC [dimethyl 1,6-hexanedioate]
Details | viscosity [mPa·s]
283.15 K | 4.39
288.15 K | 3.82
293.15 K | 3.36
298.15 K | 2.98
303.15 K | 2.67
308.15 K | 2.4
313.15 K | 2.18
318.15 K | 1.99
323.15 K | 1.82
328.15 K | 1.68
333.15 K | 1.55
338.15 K | 1.44
343.15 K | 1.34
348.15 K | 1.25
353.15 K | 1.17
358.15 K | 1.1
363.15 K | 1.03
368.15 K | 0.97
373.15 K | 0.92

Details | mass density [kg/m3]
293.15 K, 100 kPa | 1061.5
293.15 K, 10000 kPa | 1067.7
293.15 K, 20000 kPa | 1073.6
293.15 K, 30000 kPa | 1079.2
293.15 K, 40000 kPa | 1084.5
293.15 K, 50000 kPa | 1089.6
293.15 K, 60000 kPa | 1094.7
293.15 K, 70000 kPa | 1099.5
293.15 K, 80000 kPa | 1104.2
293.15 K, 90000 kPa | 1108.5
293.15 K, 100000 kPa | 1112.8
303.15 K, 100 kPa | 1051.8
303.15 K, 10000 kPa | 1058
303.15 K, 20000 kPa | 1064.4
303.15 K, 30000 kPa | 1070.5
303.15 K, 40000 kPa | 1076
303.15 K, 50000 kPa | 1081.5
303.15 K, 60000 kPa | 1086.7
303.15 K, 70000 kPa | 1091.5
303.15 K, 80000 kPa | 1096.1
303.15 K, 90000 kPa | 1100.6
303.15 K, 100000 kPa | 1104.7
303.15 K, 110000 kPa | 1108.9
303.15 K, 120000 kPa | 1113.1
303.15 K, 130000 kPa | 1117
303.15 K, 140000 kPa | 1120.9
313.15 K, 100 kPa | 1042.1
313.15 K, 10000 kPa | 1048.9
313.15 K, 20000 kPa | 1055.6
313.15 K, 30000 kPa | 1061.8
313.15 K, 40000 kPa | 1067.5
313.15 K, 50000 kPa | 1073.2
313.15 K, 60000 kPa | 1078.6
313.15 K, 70000 kPa | 1083.7
313.15 K, 80000 kPa | 1088.7
313.15 K, 90000 kPa | 1093.2
313.15 K, 100000 kPa | 1097.2
313.15 K, 110000 kPa | 1101.5
313.15 K, 120000 kPa | 1105.6
313.15 K, 130000 kPa | 1109.8
313.15 K, 140000 kPa | 1113.8
323.15 K, 100 kPa | 1031.6
323.15 K, 10000 kPa | 1038.9
323.15 K, 20000 kPa | 1045.7
323.15 K, 30000 kPa | 1052.1
323.15 K, 40000 kPa | 1058.3
323.15 K, 50000 kPa | 1063.9
323.15 K, 60000 kPa | 1069.1
323.15 K, 70000 kPa | 1074.4
323.15 K, 80000 kPa | 1079.3
323.15 K, 90000 kPa | 1084.2
323.15 K, 100000 kPa | 1088.9
323.15 K, 110000 kPa | 1093.3
323.15 K, 120000 kPa | 1097.9
323.15 K, 130000 kPa | 1102.2
323.15 K, 140000 kPa | 1106.2
333.15 K, 100 kPa | 1022.6
333.15 K, 10000 kPa | 1029.6
333.15 K, 20000 kPa | 1036.8
333.15 K, 30000 kPa | 1043.6
333.15 K, 40000 kPa | 1049.9
333.15 K, 50000 kPa | 1056
333.15 K, 60000 kPa | 1061.5
333.15 K, 70000 kPa | 1066.9
333.15 K, 80000 kPa | 1072
333.15 K, 90000 kPa | 1076.9
333.15 K, 100000 kPa | 1082
333.15 K, 110000 kPa | 1086.8
333.15 K, 120000 kPa | 1091.1
333.15 K, 130000 kPa | 1095.5
333.15 K, 140000 kPa | 1099.8
343.15 K, 100 kPa | 1012.3
343.15 K, 10000 kPa | 1020.4
343.15 K, 20000 kPa | 1028.1
343.15 K, 30000 kPa | 1034.8
343.15 K, 40000 kPa | 1041.3
343.15 K, 50000 kPa | 1047.6
343.15 K, 60000 kPa | 1053.5
343.15 K, 70000 kPa | 1058.6
343.15 K, 80000 kPa | 1064.2
343.15 K, 90000 kPa | 1069.3
343.15 K, 100000 kPa | 1074.1
343.15 K, 110000 kPa | 1079
343.15 K, 120000 kPa | 1083.9
343.15 K, 130000 kPa | 1088.3
343.15 K, 140000 kPa | 1092.4
353.15 K, 100 kPa | 1002.2
353.15 K, 10000 kPa | 1010.8
353.15 K, 20000 kPa | 1018.4
353.15 K, 30000 kPa | 1025.6
353.15 K, 40000 kPa | 1032.8
353.15 K, 50000 kPa | 1039
353.15 K, 60000 kPa | 1045.4
353.15 K, 70000 kPa | 1051.2
353.15 K, 80000 kPa | 1056.7
353.15 K, 90000 kPa | 1061.9
353.15 K, 100000 kPa | 1067.3
353.15 K, 110000 kPa | 1072.2
353.15 K, 120000 kPa | 1076.6
353.15 K, 130000 kPa | 1081.3
353.15 K, 140000 kPa | 1085.6
363.15 K, 100 kPa | 992.2
363.15 K, 10000 kPa | 1000.6
363.15 K, 20000 kPa | 1008.9
363.15 K, 30000 kPa | 1016.6
363.15 K, 40000 kPa | 1023.7
363.15 K, 50000 kPa | 1030.4
363.15 K, 60000 kPa | 1036.8
363.15 K, 70000 kPa | 1042.9
363.15 K, 80000 kPa | 1048.5
363.15 K, 90000 kPa | 1053.9
363.15 K, 100000 kPa | 1059.2
363.15 K, 110000 kPa | 1064.3
363.15 K, 120000 kPa | 1069.1
363.15 K, 130000 kPa | 1074.1
363.15 K, 140000 kPa | 1078.5
373.15 K, 100 kPa | 981.9
373.15 K, 10000 kPa | 991
373.15 K, 20000 kPa | 999.5
373.15 K, 30000 kPa | 1007.7
373.15 K, 40000 kPa | 1014.8
373.15 K, 50000 kPa | 1021.8
373.15 K, 60000 kPa | 1029
373.15 K, 70000 kPa | 1035
373.15 K, 80000 kPa | 1040.9
373.15 K, 90000 kPa | 1046.4
373.15 K, 100000 kPa | 1051
373.15 K, 110000 kPa | 1056.3
373.15 K, 120000 kPa | 1061.6
373.15 K, 130000 kPa | 1066
373.15 K, 140000 kPa | 1071.2
383.15 K, 100 kPa | 972.2
383.15 K, 10000 kPa | 981.1
383.15 K, 20000 kPa | 990.4
383.15 K, 30000 kPa | 998.7
383.15 K, 40000 kPa | 1006.3
383.15 K, 50000 kPa | 1013.9
383.15 K, 60000 kPa | 1020.5
383.15 K, 70000 kPa | 1027
383.15 K, 80000 kPa | 1033.2
383.15 K, 90000 kPa | 1039
383.15 K, 100000 kPa | 1044.7
383.15 K, 110000 kPa | 1050.1
383.15 K, 120000 kPa | 1055.2
383.15 K, 130000 kPa | 1059.9
383.15 K, 140000 kPa | 1065.1
393.15 K, 100 kPa | 961.7
393.15 K, 10000 kPa | 971.7
393.15 K, 20000 kPa | 981.5
393.15 K, 30000 kPa | 990.1
393.15 K, 40000 kPa | 998.2
393.15 K, 50000 kPa | 1005.9
393.15 K, 60000 kPa | 1013
393.15 K, 70000 kPa | 1019.7
393.15 K, 80000 kPa | 1026
393.15 K, 90000 kPa | 1032.1
393.15 K, 100000 kPa | 1037.7
393.15 K, 110000 kPa | 1043.1
393.15 K, 120000 kPa | 1048.7
393.15 K, 130000 kPa | 1053.8
393.15 K, 140000 kPa | 1058.5
403.15 K, 100 kPa | 951.5
403.15 K, 10000 kPa | 961.4
403.15 K, 20000 kPa | 971.6
403.15 K, 30000 kPa | 980.8
403.15 K, 40000 kPa | 989.3
403.15 K, 50000 kPa | 997.3
403.15 K, 60000 kPa | 1004.5
403.15 K, 70000 kPa | 1011.5
403.15 K, 80000 kPa | 1018.2
403.15 K, 90000 kPa | 1024.5
403.15 K, 100000 kPa | 1030.2
403.15 K, 110000 kPa | 1035.9
403.15 K, 120000 kPa | 1041.3
403.15 K, 130000 kPa | 1046.6
403.15 K, 140000 kPa | 1051.6
